Literature values as cited in patent US20060240101A1, “Orally disintegrating pharmaceutical tablet formulations of olanzapine” (priority 2005, published 2006).

Conditions: for water solubility: at 20° C.

| Compound | water solubility | solubility in water (2005 Physician Desk Reference label information for Zyprexa) |
| --- | --- | --- |
| OC[C@@H](O)[C@@H](O)[C@H](O)[C@H](O)CO [Pearlitol® 50C, mannitol] | approximately 250 g/l | – |
| OC[C@@H](O)[C@@H](O)[C@H](O)[C@H](O)CO [Pearlitol® 200 SD, mannitol] | approximately 170 g/l | – |
| Cc1cc2c(s1)Nc1ccccc1N=C2N1CCN(C)CC1 [olanzapine, 2-methyl-4-(4-methyl-1-piperanzinyl)-10H-thieno[2,3-b][1,5] benzodiazepine] | – | insoluble in water |
